From patent US8785351B2, “Herbicidal compositions containing bentazon and ALS inhibitor and ACCase inhibitor” (Dow AgroSciences LLC, priority 2012, dated 2014)

How the values were obtained:
Assay in all cases: Postemergence herbicidal activity of mixtures in the field (direct-seeded rice), visual weed control
Format in all cases: in vivo
[1] = test system: Cyperus iria (CYPIR, rice flatsedge); conditions: grams ai/ha: penoxsulam 1, bentazon-Na 112.5, cyhalofop-butyl 9.4, each alone or all three mixed, rice field trials
Protocol: (§1) Evaluation of Postemergence Herbicidal Activity of Mixtures in the Field
(§2) Field trials were conducted in Vietnam and Taiwan in cultivated direct-seeded rice using standard herbicide small plot research methodology. Plots varied from 1×2 meter (m) to 4×5 m (width×length) with 3-4 replicates per treatment. The rice crop was grown using normal cultural practices for fertilization, seeding, watering, flooding and maintenance to ensure good growth of the crop and the weeds.
(§3) All treatments in the field trials were applied using a backpack air sprayer with flat fan nozzles calibrated to apply 320 to 450 L/ha spray volume at approximately 30 PSI. Commercially available products of penoxsulam (Clipper 25OD), bispyribac-sodium (Nominee 100SC), bentazon-sodium (Basagran 480SL), cyhalofop-butyl (Clincher 100EC), and fenoxaprop-P-ethyl (Whip S) were mixed in water at appropriate formulated product rates to achieve the desired rates based on a unit area of application (hectare) to achieve the desired rates as shown. Treatments were rated at 7 to 42 days after application (DAA) as compared to the untreated control plants. Visual weed control was scored on a scale of 0 to 100 percent where 0 corresponds to no injury and 100 corresponds to complete kill.
(§4) All treatment results, both for the single product and mixtures, are an average of 3 to 4 replicates and the tank mix interactions are significant at the […] level.
(§5) Colby's equation was used to determine the herbicidal effects expected from the mixtures (Colby, S. R. Calculation of the synergistic and antagonistic response of herbicide combinations. Weeds 1967, 15, 20-22.).
(§6) The following equation was used to calculate the expected activity of mixtures containing […]: Expected=A+B+C−(AB+AC+BC)/100+(ABC)/10,000
(§7) A=observed efficacy of active ingredient A at the same concentration as used in the mixture.
(§8) B=observed efficacy of active ingredient B at the same concentration as used in the mixture.
(§9) C=observed efficacy of active ingredient C at the same concentration as used in the mixture.
(§10) All comparisons are an average of 3 to 4 replicates and are significant at the […] level.

[2] = test system: Echinochloa crus-galli (ECHCG, barnyardgrass); conditions: rice field trials
Protocol: as §1, §2, §3, §4, §5, §6, §7, §8, §9, §10

[3] = test system: Fimbristylis miliacea (FIMMI, globe fringerush); conditions: grams ai/ha: penoxsulam 10, bentazon-Na 900, cyhalofop-butyl 75, each alone or all three mixed, rice field trials
Protocol: as §1, §2, §3, §4, §5, §6, §7, §8, §9, §10

[4] = test system: Leptochloa chinensis (LEFCH, Chinese sprangletop); conditions: grams ai/ha: penoxsulam 1.6, bentazon-Na 112.5, cyhalofop-butyl 37.5, each alone or all three mixed, rice field trials
Protocol: as §1, §2, §3, §4, §5, §6, §7, §8, §9, §10

[5] = test system: Monochoria vaginalis (MOOVA, monochoria); conditions: rice field trials
Protocol: as §1, §2, §3, §4, §5, §6, §7, §8, §9, §10

[6] = grams ai/ha: penoxsulam 4 alone (6 in the mix), bentazon-Na 450, fenoxaprop-P-ethyl 8, each alone or all three mixed
[7] = grams ai/ha: penoxsulam 10, bentazon-Na 900, cyhalofop-butyl 75, each alone or all three mixed
[8] = grams ai/ha: bispyribac-Na 4, bentazon-Na 225, cyhalofop-butyl 75, each alone or all three mixed
[9] = grams ai/ha: penoxsulam 5, bentazon-Na 450, cyhalofop-butyl 37.5, each alone or all three mixed

| Compound | % Visual Control CYPIR (42 DAA) Obs [1] [%] | % Visual Control ECHCG (7 DAA) Obs [2, 6] [%] | % Visual Control ECHCG (7 DAA) Obs [2, 7] [%] | % Visual Control ECHCG (14 DAA) Obs [2, 8] [%] | % Visual Control ECHCG (14 DAA) Obs [2, 7] [%] | % Visual Control ECHCG (28 DAA) Obs [2, 7] [%] | % Visual Control FIMMI (42 DAA) Obs [3] [%] | % Visual Control LEFCH (7 DAA) Obs [4] [%] | % Visual Control MOOVA (7 DAA) Obs [5, 6] [%] | % Visual Control MOOVA (7 DAA) Obs [5, 9] [%] | % Visual Control MOOVA (14 DAA) Obs [5, 9] [%] |
| --- | --- | --- | --- | --- | --- | --- | --- | --- | --- | --- | --- |
| CC(C)N1C(=O)c2ccccc2NS1(=O)=O [Bentazon (Na), 3-(1-methylethyl)-1H-2,1,3-benzothiadiazin-4(3H)-one 2,2-dioxide] | 63 | 0 | 0 | 0 | 0 | 0 | 0 | 0 | 17 | 0 | 0 |
| COc1cc(OC)nc(Oc2cccc(Oc3nc(OC)cc(OC)n3)c2C(=O)[O-])n1.[Na+] [Bispyribac (Na), sodium 2,6-bis(4,6-dimethoxypyrimidin-2-yloxy)benzoate] | – | – | – | 0 | – | – | – | – | – | – | – |
| CCCCOC(=O)[C@@H](C)Oc1ccc(Oc2ccc(C#N)cc2F)cc1 [Cyhalofop (Butyl), (R)-butyl 2-[4-(4-cyano-2-fluorophenoxy)phenoxy]propanoate] | 0 | – | 37 | 40 | 43 | 40 | 60 | 83 | – | 0 | 0 |
| CCOC(=O)[C@@H](C)Oc1ccc(Oc2nc3ccc(Cl)cc3o2)cc1 [Fenoxaprop-P (Ethyl), (R)-ethyl-2-[4-(6-chloro-1,3-benzoxazol-2-yloxy)phenoxy]propanoate] | – | 0 | – | – | – | – | – | – | 0 | – | – |
| COc1cnc(OC)n2nc(NS(=O)(=O)c3c(OCC(F)F)cccc3C(F)(F)F)nc12 [Penoxsulam, 2-(2,2-difluoroethoxy)-N-(5,8-dimethoxy[1,2,4]triazolo[1,5-c]pyrimidin-2-yl)-6-(trifluoromethyl)benzenesulfonamide] | 75 | 61 | 58 | – | 60 | 60 | 78 | 0 | 22 | 77 | 87 |
